Here are results for 17 compounds from patent publication US20240307362A1 (priority 2019, published 2024).

Several values for one entry are separate records, joined by “and”; a condition that tells them apart may be missing. Identical values can stand only once. Like-named read-outs stand apart in the source and are kept apart here. Some results are limits rather than exact numbers.

In one experiment the target is human Bub1 (Homo sapiens (Human), UniProt O43683). The experiment in a line: Bub1 high ATP kinase assay (TR-FRET). It counts as biochemical. As to conditions: read-out: Bub1 high ATP (2 mM) IC50; 2 mM ATP. From the text:
Bub1-inhibitory activity of compounds of the present invention at a high ATP concentration was quantified employing the Bub1 TR-FRET high ATP kinase assay as described in the following paragraphs.
N-terminally His6-tagged recombinant catalytic domain of human Bub1 (amino acids 704-1085), expressed in insect cells (Hi5) and purified by Ni-NTA affinity chromatography and subsequent size exclusion chromatography, was used as enzyme.

Another experiment deals with Ba/F3-EGFR-insSVD. The experiment can be described thus: Ba/F3 cell survival assay, EGFR-insSVD. It counts as cell-based. How it is done: (§1) 293T cells from ATCC were transfected with pBABEpuro expression constructs for WT EGFR or EGFR-insSVD and pCL-Eco packaging vector using Fugene-6 transfection reagent from Promega. Plates were incubated at 37° C. for 48 h. Retrovirus was harvested by filtering the media supernatant through a 0.45 μm filter.
(§2) Ba/F3 cells purchased from DSMZ were grown in RPMI+10% FBS+10 ng/mL IL-3 and infected with filtered retroviral supernatant at a 1:2 dilution. Polybrene was added to a concentration of 8 μg/mL, plates were spun for 90 min, and incubated overnight at 37° C. 2 μg/mL puromycin was added to the infected cells 24 h after infection and cells were continually grown in the presence of puromycin and 10 ng/mL IL-3. Following stably expressing Ba/F3 cell lines were generated: Ba/F3-EGFR-WT, Ba/F3-EGFR-insSVD, (Ba/F3-vector-control).
For cell survival assays, Ba/F3 cells were grown to a density of 1-2 million cells per mL, spun down and resuspended in media without IL-3, and replated at a concentration 200,000-500,000 cells per mL. The cells ectopically expressing WT EGFR or EGFR-insSVD were plated with 10 ng/mL Millipore Culture grade EGF. The cells ectopically expressing pBABEpuro empty vector were plated with 10 ng/mL IL-3.
2 days later, cells were plated in 50 μL in a 384 well plate at a concentration of 4000 cells per well for cells assayed in the absence of IL-3 and 2000 cells per well for cells assayed in the presence of IL-3. 100 nL of compound was added to each well using a 100 nL pin head, and plates were incubated at 37° C. for 48 h.
Cell viability was measured by adding 20 μL of Cell Titer-Glo Luminescent Cell Viability Reagent diluted 1:3 in PBS. Plates were sealed with Perkin Elmer Top-Seal, inverted several times to mix, and immediately centrifuged at 1000 rpm for 2 min. Plates were incubated in low light conditions for 8-10 min and luminescence was measured.

For another experiment, the system named is Ba/F3-EGFR-WT. The experiment can be described thus: Ba/F3 cell survival assay, WT EGFR. It counts as cell-based. How it is done: as §1, §2
The cells ectopically expressing WT EGFR or EGFR-insSVD were plated with 10 ng/mL Millipore Culture grade EGF. The cells ectopically expressing pBABEpuro empty vector were plated with 10 ng/mL IL-3.
100 nL of compound was added to each well using a 100 nL pin head, and plates were incubated at 37° C. for 48 h.
Cell viability was measured by adding 20 μL of Cell Titer-Glo Luminescent Cell Viability Reagent diluted 1:3 in PBS. Plates were sealed with Perkin Elmer Top-Seal, inverted several times to mix, and immediately centrifuged at 1000 rpm for 2 min.

Where [1] appears, read: read-out: BA/F3 (insSVD) IC50, cell viability, Cell Titer-Glo, 48 h, with 10 ng/mL EGF, without IL-3.
Setting [2] is: Mus musculus, BaF3, 48 h, read-out: BA/F3 (wild type) IC50, cell viability, Cell Titer-Glo, 48 h, with 10 ng/mL EGF, without IL-3.
Setting [3] is: Mus musculus, BaF3, 48 h, read-out: BA/F3 (insSVD) IC50, cell viability, Cell Titer-Glo, 48 h, with 10 ng/mL EGF, without IL-3.
The mark [4] stands for this setting: read-out: BA/F3 (wild type) IC50, cell viability, Cell Titer-Glo, 48 h, with 10 ng/mL EGF, without IL-3.

Sequence of human Bub1 (O43683 704-1085): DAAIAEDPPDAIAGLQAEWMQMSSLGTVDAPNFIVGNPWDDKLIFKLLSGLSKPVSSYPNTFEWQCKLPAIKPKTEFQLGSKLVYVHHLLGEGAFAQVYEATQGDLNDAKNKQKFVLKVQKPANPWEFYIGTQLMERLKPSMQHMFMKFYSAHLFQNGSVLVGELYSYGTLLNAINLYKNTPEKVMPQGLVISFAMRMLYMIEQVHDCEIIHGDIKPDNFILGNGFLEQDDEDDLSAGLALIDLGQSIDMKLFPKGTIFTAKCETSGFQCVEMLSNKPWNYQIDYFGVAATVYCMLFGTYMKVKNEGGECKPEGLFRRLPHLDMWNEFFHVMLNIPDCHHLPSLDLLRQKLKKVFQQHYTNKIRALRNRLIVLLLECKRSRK

In the case of `CC1(C)COC1COc1cnccc1-c1[nH]c2c(c1Nc1cccc(Cl)c1OC(F)F)C(=O)NCC2` (single isomer, unassigned) [Example 73, 3-[3-chloro-2-(difluoromethoxy)anilino]-2-(3-{[3,3-dimethyloxetan-2-yl]methoxy}pyridin-4-yl)-1,5,6,7-tetrahydro-4H-pyrrolo[3,2-c]pyridin-4-one], the IC50 is more than 20000 nM at human Bub1, 92.3 nM in the experiment with Ba/F3-EGFR-insSVD (setting [1]) and 1910 nM in the experiment with Ba/F3-EGFR-WT (setting [2]).

As to `Cc1c(Cl)cccc1Nc1c(-c2ccncc2OC[C@H]2CCO2)[nH]c2c1C(=O)NCC2` [Example 9, 3-(3-chloro-2-methylanilino)-2-(3-{[(2R)-oxetan-2-yl]methoxy}pyridin-4-yl)-1,5,6,7-tetrahydro-4H-pyrrolo[3,2-c]pyridin-4-one], the IC50 at human Bub1 came to 1570 nM; in the experiment on Ba/F3-EGFR-insSVD (setting [3]) it was 269 nM; in the experiment on Ba/F3-EGFR-WT (setting [2]), 1200 nM.

Take `Cc1cccc(Nc2c(-c3ccncc3OCC3OCC3(C)C)[nH]c3c2C(=O)NCC3)c1Cl` (racemic) [Example 58, 3-(2-chloro-3-methylanilino)-2-{3-[(3,3-dimethyloxetan-2-yl)methoxy]pyridin-4-yl}-1,5,6,7-tetrahydro-4H-pyrrolo[3,2-c]pyridin-4-one]: the IC50 on human Bub1 is more than 20000 nM; with Ba/F3-EGFR-insSVD (setting [3]) it was 106 nM; in the experiment on Ba/F3-EGFR-WT (setting [2]), 1430 nM.

On to `Cc1c(Cl)cccc1Nc1c(-c2ccncc2OCC2CCO2)[nH]c2c1C(=O)NCC2` (racemic) [Example 7, 3-(3-chloro-2-methylanilino)-2-{3-[(oxetan-2-yl)methoxy]pyridin-4-yl}-1,5,6,7-tetrahydro-4H-pyrrolo[3,2-c]pyridin-4-one], for which the results for the IC50 on human Bub1, with Ba/F3-EGFR-insSVD (setting [3]) and in the experiment with Ba/F3-EGFR-WT (setting [2]) were 2630 nM, 48.2 nM and 820 nM, respectively.

In the case of `Cc1cccc(Nc2c(-c3ccncc3OCC3CCO3)[nH]c3c2C(=O)NCC3)c1Cl` (racemic) [Example 37, 3-(2-chloro-3-methylanilino)-2-{3-[(oxetan-2-yl)methoxy]pyridin-4-yl}-1,5,6,7-tetrahydro-4H-pyrrolo[3,2-c]pyridin-4-one], the IC50 at human Bub1 was determined as 11700 nM; with Ba/F3-EGFR-insSVD (setting [3]) it was 105 nM; in the experiment on Ba/F3-EGFR-WT (setting [2]), 942 nM.

With `COc1c(Nc2c(-c3ccncc3OCC3CCO3)[nH]c3c2C(=O)NCC3)ccc(F)c1Cl` (single isomer, unassigned; (-)) [Example 14, (−)-3-(3-chloro-4-fluoro-2-methoxyanilino)-2-{3-[(oxetan-2-yl)methoxy]pyridin-4-yl}-1,5,6,7-tetrahydro-4H-pyrrolo[3,2-c]pyridin-4-one], the values for the IC50 on human Bub1, in the experiment on Ba/F3-EGFR-insSVD (setting [1]) and in the experiment with Ba/F3-EGFR-WT (setting [2]) were 16300 nM, 438 nM and 1660 nM, respectively.

With `Cc1cccc(Nc2c(-c3ccncc3OCC3OCC3(C)C)[nH]c3c2C(=O)NCC3)c1Cl` (single isomer, unassigned; (+)) [Example 59, (+)-3-(2-chloro-3-methylanilino)-2-{3-[(3,3-dimethyloxetan-2-yl)methoxy]pyridin-4-yl}-1,5,6,7-tetrahydro-4H-pyrrolo[3,2-c]pyridin-4-one], the IC50 is more than 20000 nM at human Bub1, 59.9 nM in the experiment on Ba/F3-EGFR-insSVD (setting [1]) and 655 nM with Ba/F3-EGFR-WT (setting [4]).

For `COc1c(F)cccc1Nc1c(-c2ccncc2OCC2OCC2(C)C)[nH]c2c1C(=O)NCC2` (racemic) [Example 52, 2-{3-[(3,3-dimethyloxetan-2-yl)methoxy]pyridin-4-yl}-3-(3-fluoro-2-methoxyanilino)-1,5,6,7-tetrahydro-4H-pyrrolo[3,2-c]pyridin-4-one], the IC50 on human Bub1 is more than 20000 nM; in the experiment with Ba/F3-EGFR-insSVD (setting [3]), 38.1 nM; with Ba/F3-EGFR-WT (setting [2]), 535 nM.

`COc1c(Cl)cc(F)cc1Nc1c(-c2ccncc2OCC2CCO2)[nH]c2c1C(=O)NCC2` (racemic) [Example 65, 3-(3-chloro-5-fluoro-2-methoxyanilino)-2-(3-{[oxetan-2-yl]methoxy}pyridin-4-yl)-1,5,6,7-tetrahydro-4H-pyrrolo[3,2-c]pyridin-4-one]: the IC50 on human Bub1 was more than 20000 nM; in the experiment on Ba/F3-EGFR-insSVD (setting [3]) it was 89.8 nM; in the experiment on Ba/F3-EGFR-WT (setting [2]) it was 911 nM.

As for `Cc1cccc(Nc2c(-c3ccncc3OCC3OCC3(C)C)[nH]c3c2C(=O)NCC3)c1Cl` (single isomer, unassigned; (-)) [Example 60, (−)-3-(2-chloro-3-methylanilino)-2-{3-[(3,3-dimethyloxetan-2-yl)methoxy]pyridin-4-yl}-1,5,6,7-tetrahydro-4H-pyrrolo[3,2-c]pyridin-4-one], the IC50 on human Bub1 was 18800 nM and > 20000 nM; in the experiment with Ba/F3-EGFR-insSVD (setting [1]), more than 1000 nM; in the experiment on Ba/F3-EGFR-WT (setting [4]) it was 2130 nM.

Turning to `O=C1NCCc2[nH]c(-c3ccncc3OCC3CCO3)c(Nc3cccc(Cl)c3Cl)c21` (single isomer, unassigned; (-)) [Example 12, (−)-3-(2,3-dichloroanilino)-2-{3-[(oxetan-2-yl)methoxy]pyridin-4-yl}-1,5,6,7-tetrahydro-4H-pyrrolo[3,2-c]pyridin-4-one], the IC50 on human Bub1 amounted to 11300 nM; in the experiment on Ba/F3-EGFR-insSVD (setting [1]) it was 192 nM; in the experiment on Ba/F3-EGFR-WT (setting [4]), 991 nM.

Consider `CCC1(COc2cnccc2-c2[nH]c3c(c2Nc2cccc(Cl)c2OC)C(=O)NCC3)COC1` [Example 22, 3-(3-chloro-2-methoxyanilino)-2-{3-[(3-ethyloxetan-3-yl)methoxy]pyridin-4-yl}-1,5,6,7-tetrahydro-4H-pyrrolo[3,2-c]pyridin-4-one], for which the IC50 at human Bub1 came out at 3830 nM; in the experiment on Ba/F3-EGFR-insSVD (setting [3]), 57.2 nM; with Ba/F3-EGFR-WT (setting [2]), 852 nM.

In the case of `COc1c(F)cccc1Nc1c(-c2ccncc2OCC2(C)CCO2)[nH]c2c1C(=O)NCC2` (racemic) [Example 19, 3-(3-fluoro-2-methoxyanilino)-2-{3-[(2-methyloxetan-2-yl)methoxy]pyridin-4-yl}-1,5,6,7-tetrahydro-4H-pyrrolo[3,2-c]pyridin-4-one], the IC50 at human Bub1 is 13700 nM and > 20000 nM; with Ba/F3-EGFR-insSVD (setting [3]), 66.7 nM; in the experiment with Ba/F3-EGFR-WT (setting [2]), 2060 nM.

On to `O=C1NCCc2[nH]c(-c3ccncc3OCC3CCO3)c(Nc3cccc(Cl)c3Cl)c21` (single isomer, unassigned; (+)) [Example 11, (+)-3-(2,3-dichloroanilino)-2-{3-[(oxetan-2-yl)methoxy]pyridin-4-yl}-1,5,6,7-tetrahydro-4H-pyrrolo[3,2-c]pyridin-4-one], for which the IC50 on human Bub1 was more than 20000 nM; in the experiment with Ba/F3-EGFR-insSVD (setting [3]), 147 nM; with Ba/F3-EGFR-WT (setting [2]) it was 767 nM.

On to `COc1c(Cl)cccc1Nc1c(-c2ccncc2OCC2(C)CCO2)[nH]c2c1C(=O)NCC2` (single isomer, unassigned; (-)) [Example 47, (−)-3-(3-chloro-2-methoxyanilino)-2-{3-[(2-methyloxetan-2-yl)methoxy]pyridin-4-yl}-1,5,6,7-tetrahydro-4H-pyrrolo[3,2-c]pyridin-4-one], for which the IC50 on human Bub1 was 8860 nM; in the experiment with Ba/F3-EGFR-insSVD (setting [1]), 96.4 nM; in the experiment on Ba/F3-EGFR-WT (setting [4]), 975 nM.

Regarding `COc1c(F)cccc1Nc1c(-c2ccncc2OCC2CCO2)[nH]c2c1C(=O)NCC2` (racemic) [Example 4, 3-(3-fluoro-2-methoxyanilino)-2-{3-[(oxetan-2-yl)methoxy]pyridin-4-yl}-1,5,6,7-tetrahydro-4H-pyrrolo[3,2-c]pyridin-4-one], the IC50 was 17400 nM on human Bub1, 59.3 nM in the experiment with Ba/F3-EGFR-insSVD (setting [3]) and 939 nM with Ba/F3-EGFR-WT (setting [2]).

In the case of `COc1c(Nc2c(-c3ccncc3OCC3CCO3)[nH]c3c2C(=O)NCC3)ccc(F)c1Cl` (single isomer, unassigned; (+)) [Example 15, (+)-3-(3-chloro-4-fluoro-2-methoxyanilino)-2-{3-[(oxetan-2-yl)methoxy]pyridin-4-yl}-1,5,6,7-tetrahydro-4H-pyrrolo[3,2-c]pyridin-4-one], the IC50 on human Bub1 is more than 20000 nM; in the experiment on Ba/F3-EGFR-insSVD (setting [1]), 168 nM; in the experiment with Ba/F3-EGFR-WT (setting [4]) it was 2380 nM.
